Experimental data from patent US5849695A, “Parathyroid hormone analogues useful for treatment of osteoporosis and disorders of calcium meatabolism in mammals” (The Regents of the University of California, priority 1993, dated 1998).

Experiments:
[1] = aqueous conditions in the absence of amphiphiles (Ref. 37-39); cited from earlier work
[2] = molecular target: T1, PTH receptor (Rattus norvegicus, UniProt P25961); format: binding
T1 construct: endogenous in cells; host or cells: UMR 106-H5 rat osteosarcoma cells
T1 sequence (P25961 27-591): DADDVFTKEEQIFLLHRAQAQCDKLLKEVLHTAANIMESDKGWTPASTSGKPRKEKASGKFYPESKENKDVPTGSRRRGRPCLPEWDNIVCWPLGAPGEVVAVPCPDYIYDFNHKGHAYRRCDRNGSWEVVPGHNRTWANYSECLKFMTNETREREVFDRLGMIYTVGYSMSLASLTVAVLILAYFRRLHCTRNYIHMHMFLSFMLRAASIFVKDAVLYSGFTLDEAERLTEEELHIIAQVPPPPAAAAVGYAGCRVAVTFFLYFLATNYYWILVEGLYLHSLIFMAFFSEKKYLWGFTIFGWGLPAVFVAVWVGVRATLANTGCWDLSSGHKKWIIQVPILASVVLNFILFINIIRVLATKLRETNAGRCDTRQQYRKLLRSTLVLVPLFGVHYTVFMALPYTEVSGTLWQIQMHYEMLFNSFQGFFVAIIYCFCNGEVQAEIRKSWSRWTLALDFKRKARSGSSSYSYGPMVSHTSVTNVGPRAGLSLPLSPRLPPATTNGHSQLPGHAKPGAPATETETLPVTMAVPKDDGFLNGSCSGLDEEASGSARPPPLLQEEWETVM
Procedure: (§1) Receptor binding assays were carried out in canine renal plasma membranes and in UMR 106-H5 rat osteosarcoma cells as previously described in detail (Ref. 14,32), using ^125 I-labeled PTH(1-34)amide as the radioligand. Binding potency (IC50) was quantified as the concentration of unlabeled peptide required for half-maximal displacement of the radioligand. […] Adenylate cyclase activity was assessed in canine renal membranes by the conversion of [α-32p ] ATP to [^32 P] cyclic AMP, essentially as described, except for the addition of 100 micromolar GTP (Ref. 33,34). Adenylate cyclase activity in UMR 106-H5 cells was assessed essentially as described (Ref. 35). In brief, cells were incubated with [3H]adenine 1 micro Ci/ml of serum-free MEM for two hours at 37° C. to label the endogenous ATP pool. Cells were then exposed to 0.4 mM IBMX for 10 min, followed by the appropriate peptide for an additional 10 min at ambient temperature. The cells are then scraped in 20% TCA, and [3H]cyclic AMP is isolated by the column procedure of Salomon et al. (Ref. 36). Potency in the adenylate cyclase assays (Ka) is the concentration of peptide producing half-maximal enzyme activation.

[3] = molecular target: T2, PTH receptor (Canis lupus familiaris, UniProt Q9TU31); format: biochemical, canine
T2 construct: canine renal plasma membranes; from tissue; host or cells: canine kidney (renal plasma membranes)
T2 sequence (Q9TU31 29-595): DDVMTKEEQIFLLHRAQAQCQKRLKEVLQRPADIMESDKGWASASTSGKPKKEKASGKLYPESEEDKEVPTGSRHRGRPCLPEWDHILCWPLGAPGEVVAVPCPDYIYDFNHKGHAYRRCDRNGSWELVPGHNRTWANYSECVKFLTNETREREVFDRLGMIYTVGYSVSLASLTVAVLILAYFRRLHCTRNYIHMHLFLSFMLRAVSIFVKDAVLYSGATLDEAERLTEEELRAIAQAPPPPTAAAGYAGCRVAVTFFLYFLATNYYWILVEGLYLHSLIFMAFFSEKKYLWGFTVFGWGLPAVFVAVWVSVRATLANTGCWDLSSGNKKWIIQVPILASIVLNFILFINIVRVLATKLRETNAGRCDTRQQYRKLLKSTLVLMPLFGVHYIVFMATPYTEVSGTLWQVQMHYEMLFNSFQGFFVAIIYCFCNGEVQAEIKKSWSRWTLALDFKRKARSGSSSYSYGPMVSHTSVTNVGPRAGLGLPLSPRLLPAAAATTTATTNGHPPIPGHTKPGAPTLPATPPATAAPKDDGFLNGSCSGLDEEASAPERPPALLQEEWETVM
Procedure: as §1

[4] = molecular target: T3, PTH receptor (Homo sapiens, UniProt Q03431); format: cell-based; set-up: In intact rat (UMR-106) and human (SaOS-2) bone cell lines; endogenous in cells; host or cells: SaOS-2 human bone (osteosarcoma) cells
T3 sequence (Q03431 27-593): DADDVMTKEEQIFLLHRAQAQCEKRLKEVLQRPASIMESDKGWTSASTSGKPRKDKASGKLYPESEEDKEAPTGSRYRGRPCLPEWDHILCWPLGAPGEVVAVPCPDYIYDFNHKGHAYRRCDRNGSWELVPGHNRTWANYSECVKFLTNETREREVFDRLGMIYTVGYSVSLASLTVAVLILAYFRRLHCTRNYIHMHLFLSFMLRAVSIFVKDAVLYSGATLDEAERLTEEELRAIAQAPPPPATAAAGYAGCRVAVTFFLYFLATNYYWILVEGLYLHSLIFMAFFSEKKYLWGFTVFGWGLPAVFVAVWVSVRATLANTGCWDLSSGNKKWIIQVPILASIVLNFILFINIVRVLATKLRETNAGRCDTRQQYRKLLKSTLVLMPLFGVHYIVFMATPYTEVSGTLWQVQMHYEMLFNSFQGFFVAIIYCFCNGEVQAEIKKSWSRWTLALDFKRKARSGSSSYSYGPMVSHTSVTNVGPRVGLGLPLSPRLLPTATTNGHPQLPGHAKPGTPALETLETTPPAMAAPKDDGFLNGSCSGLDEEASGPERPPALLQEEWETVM
Excerpt: The renal membrane assay values listed reflect the effect of the polypeptide analogue with kidney tissue receptors. The UMR-106-H5 assay values reflect the effect of the peptide analogue with rat bone tissue receptors. The Sa05-2 assay values reflect the effect of the peptides for human bone tissue receptors.

[5] = molecular target: T3, PTH receptor
[6] = molecular target: T2, PTH receptor; format: binding, canine
Procedure: as §1

[7] = molecular target: T3, PTH receptor; remark: listed apart in the source
[8] = molecular target: T1, PTH receptor; format: cell-based
Procedure: as §1, with “Assays were conducted using […] cells. These assays were performed as described in Cohen et al. (1991), J. Biological Chem., 266(3), 1997 and in the Experimental section, e.g. Example 11. Receptor” for “Receptor”

[9] = tested on: PTH receptors
[10] = tested on: PTH receptor
[11] = Table 5A, intact cells, hPTH(1-34) = 100

Compound	alpha-helical residues, previous estimates [1]	BONE CELLS Rat(UMR-106) Potency (B) [2]	RENAL MEMBRANES Canine Potency (AC) [3]	RENAL MEMBRANES Canine Activity (AC) ([3]; Table 5B, hPTH(1-34) = 100)	BONE CELLS Human(SaOS-2) Potency (AC) [4]	BONE CELLS Human(SaOS-2) Activity (AC) [4, 11]	BONE CELL MEMBRANES Human SaOS-2 Potency (AC) [5]	BONE CELL MEMBRANES Human SaOS-2 Activity (AC) ([5]; Table 5B, hPTH(1-34) = 100)	RENAL MEMBRANES Canine Potency (B) [6]	RENAL MEMBRANES Human Potency (AC) [7]	RENAL MEMBRANES Human Activity (AC) ([7]; Table 5B, hPTH(1-34) = 100)	BONE CELLS Rat(UMR-106) Potency (AC) [8]	BONE CELLS Rat(UMR-106) Activity (AC) [8, 11]	KIDNEY CELLS (CK) Potency (B) [9]	potency of native [ser^3]HPTH(1-34) retained in binding to PTH receptors [9]	KIDNEY CELLS (CK) Potency (AC) [10]
bPTH(7-34) (FMHNLGKHLSSMERVEWLRKKLQDVHNF; Parathyroid hormone; UniProt P01268 38-65, looked up, fragment)	9 residues															
CC[C@H](C)[C@H](NC(=O)[C@H](CCC(=O)O)NC(=O)[C@H](CC(C)C)NC(=O)[C@@H](NC(=O)[C@@H](N)CO)C(C)C)C(=O)N[C@@H](CCC(N)=O)C(=O)N[C@@H](CC(C)C)C(=O)N[C@@H](CCSC)C(=O)N[C@@H](Cc1c[nH]cn1)C(=O)N[C@@H](CC(N)=O)C(=O)N[C@@H](CC(C)C)C(=O)NCC(=O)N[C@@H](CCCCN)C(=O)N[C@@H](Cc1c[nH]cn1)C(=O)N[C@@H](CC(C)C)C(=O)N[C@@H](CC(N)=O)C(=O)N[C@@H](CO)C(=O)N[C@@H](CCSC)C(=O)N[C@@H](CCC(=O)O)C(=O)N[C@@H](CCCNC(=N)N)C(=O)N[C@H](C(=O)N[C@@H](CCC(=O)O)C(=O)N[C@@H](Cc1c[nH]c2ccccc12)C(=O)N[C@@H](CC(C)C)C(=O)N[C@@H](CCCNC(=N)N)C(=O)N[C@@H](CCCCN)C(=O)N[C@@H](CCCCN)C(=O)N[C@@H](CC(C)C)C(=O)N[C@@H](CCC(N)=O)C(=O)N[C@@H](CC(=O)O)C(=O)N[C@H](C(=O)N[C@@H](Cc1c[nH]cn1)C(=O)N[C@@H](CC(N)=O)C(=O)N[C@@H](Cc1ccccc1)C(=O)O)C(C)C)C(C)C [[leu^3]hPTH(1-34), [leu^3] HPTH(1-34)]		6%	1%	47%	11%	86%	8%	14%	7%	3%	35%	13%	100%	22%	5-15%	16%
